Reference: patent US11826351B2, “Compounds useful as kinase inhibitors” (Loxo Oncology, Inc., priority 2015, dated 2023)

How the values were obtained:
[1] = biological target: T1, Recombinant BTK^C481S kinase (Homo sapiens, UniProt Q06187, C481S); test: BTK C481S binding affinity (LanthaScreen TR-FRET); conditions: Kinase Tracer 236, 5 h incubation
T1 construct: purchased SignalChem
Outline: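 BTK C481S tracer-displacement TR-FRET: 5 nM His-tagged kinase, 2 nM Eu anti-His antibody and 30 nM Kinase Tracer 236 incubated with titrated inhibitor for 5 h in Kinase Buffer A. Read at 340 nm excitation, 615/665 nm emission; IC50 from variable-slope log[inhibitor]–response fit.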

[2] = biological target: T2, Recombinant EGFR (Homo sapiens, UniProt P00533); test: EGFR binding affinity (LanthaScreen TR-FRET); conditions: Kinase Tracer 199, 5 h incubation
T2 construct: purchased Invitrogen
Outline: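 Compounds were titrated against recombinant EGFR and binding was followed by LanthaScreen time-resolved FRET.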

[3] = tested on: OCI-Ly10 human DLBCL cells; test: OCI-Ly10 anti-proliferative activity (Resazurin); assay type: cell-based; conditions: Homo sapiens, OCI-Ly10, 72 h, OCI-Ly10 cells, 72 h compound treatment, Resazurin; read-out: Proliferation Assay OCI-Ly10-20% FBS
Outline: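 A separate untreated plate gave the Day 0 reading, measured by Resazurin fluorescence at 590 nm after 5 h. The average Day 0 value was subtracted from each treated well, and results were expressed as percent of DMSO control. IC50 values came from a log[Inhibitor] vs response Variable Slope fit in Graphpad prism.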

[4] = biological target: T3, Recombinant BTK^WT kinase (Homo sapiens, UniProt Q06187); test: BTK WT binding affinity (LanthaScreen TR-FRET); conditions: Kinase Tracer 236, 5 h incubation
T3 construct: purchased Invitrogen
Outline: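 IC50 obtained by variable-slope fit of TR-FRET signal (ex 340 nm; em 615 and 665 nm) versus inhibitor concentration. Reaction held for 5 h in LanthaScreen Kinase Buffer A with 2.5 nM His-tagged BTK^WT, 15 nM Kinase Tracer 236 and 2 nM Eu anti-His antibody.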

T3 sequence (Q06187 whole entry): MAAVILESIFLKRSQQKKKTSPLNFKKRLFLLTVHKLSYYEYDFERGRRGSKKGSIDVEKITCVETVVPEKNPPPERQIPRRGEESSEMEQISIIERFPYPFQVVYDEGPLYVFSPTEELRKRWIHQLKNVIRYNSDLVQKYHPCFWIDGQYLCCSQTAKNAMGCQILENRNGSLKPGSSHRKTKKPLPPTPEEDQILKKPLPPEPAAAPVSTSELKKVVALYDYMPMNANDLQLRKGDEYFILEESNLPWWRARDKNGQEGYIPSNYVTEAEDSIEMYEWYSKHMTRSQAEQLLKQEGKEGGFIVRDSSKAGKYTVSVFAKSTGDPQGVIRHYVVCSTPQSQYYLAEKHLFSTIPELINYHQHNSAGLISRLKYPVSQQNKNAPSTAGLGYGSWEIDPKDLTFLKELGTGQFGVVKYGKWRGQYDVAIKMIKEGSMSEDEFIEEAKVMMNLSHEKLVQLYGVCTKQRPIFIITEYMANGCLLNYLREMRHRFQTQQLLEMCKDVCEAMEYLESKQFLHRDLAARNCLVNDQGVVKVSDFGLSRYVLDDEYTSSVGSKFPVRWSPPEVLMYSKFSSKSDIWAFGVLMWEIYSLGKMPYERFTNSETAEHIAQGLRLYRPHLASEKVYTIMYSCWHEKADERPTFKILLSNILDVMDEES
T1 sequence (Q06187 whole entry C481S): as the sequence (Q06187 whole entry) above, with C481S counted along it
T2 sequence (P00533 25-1210): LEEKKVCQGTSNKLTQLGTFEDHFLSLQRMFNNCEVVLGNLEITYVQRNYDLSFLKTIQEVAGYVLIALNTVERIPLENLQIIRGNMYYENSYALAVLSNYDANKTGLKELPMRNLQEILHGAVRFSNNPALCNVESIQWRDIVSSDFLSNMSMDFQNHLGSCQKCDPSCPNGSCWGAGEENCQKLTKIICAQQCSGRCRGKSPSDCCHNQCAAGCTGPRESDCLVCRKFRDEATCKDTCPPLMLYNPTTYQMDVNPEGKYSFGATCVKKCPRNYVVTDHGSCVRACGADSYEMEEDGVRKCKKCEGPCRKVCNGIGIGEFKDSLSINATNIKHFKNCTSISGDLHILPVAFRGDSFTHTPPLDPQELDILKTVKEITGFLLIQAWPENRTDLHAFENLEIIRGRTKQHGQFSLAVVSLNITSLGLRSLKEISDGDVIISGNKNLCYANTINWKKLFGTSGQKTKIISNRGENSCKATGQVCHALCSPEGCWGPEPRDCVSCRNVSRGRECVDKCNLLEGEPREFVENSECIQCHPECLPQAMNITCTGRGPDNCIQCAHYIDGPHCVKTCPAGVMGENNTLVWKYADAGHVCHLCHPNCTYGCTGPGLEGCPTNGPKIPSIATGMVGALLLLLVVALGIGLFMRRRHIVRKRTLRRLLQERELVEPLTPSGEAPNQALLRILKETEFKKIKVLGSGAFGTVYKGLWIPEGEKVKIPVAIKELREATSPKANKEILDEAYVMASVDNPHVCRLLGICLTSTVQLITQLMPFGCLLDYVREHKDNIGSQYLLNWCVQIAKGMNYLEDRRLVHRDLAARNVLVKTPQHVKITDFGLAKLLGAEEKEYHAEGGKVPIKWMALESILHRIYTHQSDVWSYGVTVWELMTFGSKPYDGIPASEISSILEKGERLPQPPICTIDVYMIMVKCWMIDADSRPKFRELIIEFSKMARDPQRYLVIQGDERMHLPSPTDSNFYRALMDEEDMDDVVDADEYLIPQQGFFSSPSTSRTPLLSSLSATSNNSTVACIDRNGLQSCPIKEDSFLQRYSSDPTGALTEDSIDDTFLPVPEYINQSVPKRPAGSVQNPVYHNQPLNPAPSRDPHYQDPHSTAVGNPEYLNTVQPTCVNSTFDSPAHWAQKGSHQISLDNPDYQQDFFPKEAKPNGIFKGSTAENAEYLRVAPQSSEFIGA

Row | Structure (SMILES) | IC50 [1] [nM] | IC50 [2] [nM] | IC50 [3] [nM] | IC50 [4] [nM]
1 | COc1ccccc1C(=O)NCc1ccc(-c2nn(CC(O)C(C)(C)C)c(N)c2C(N)=O)cc1 (centres unmarked) [Example 14, 5-Amino-1-(2-hydroxy-3,3-dimethyl-butyl)-3-[4-[[(2-methoxybenzoyl)amino]methyl]phenyl]pyrazole-4-carboxamide] | 10 to 100 | 1000 to 10000 | 100 to 1000 | 10 to 100
2 | COc1ccccc1C(=O)NCc1ccc(-c2nn(C3CCC(C)C3)c(N)c2C(N)=O)cc1 (centres unmarked) [Example 5, 5-Amino-3-[4-[[(2-methoxybenzoyl)amino]methyl]phenyl]-1-(3-methylcyclopentyl)pyrazole-4-carboxamide] | < 10 | 100 to 1000 | 10 to 100 | < 10
3 | COc1ccccc1C(=O)NCc1ccc(-c2nn(-c3cc(F)ccc3F)c(N)c2C(N)=O)cc1 [Example 61, 5-amino-1-(2,5-difluorophenyl)-3-[4-[[(2-methoxybenzoyl)amino]methyl]phenyl]pyrazole-4-carboxamide] | < 10 | 100 to 1000 | 10 to 100 | < 10
4 | COc1ccccc1C(=O)NCc1ccc(-c2nn(C3CCOCC3)c(N)c2C(N)=O)cc1F [Example 116, 5-amino-3-[3-fluoro-4-[[(2-methoxybenzoyl)amino]methyl]phenyl]-1-tetrahydropyran-4-yl-pyrazole-4-carboxamide] | < 10 | 1000 to 10000 | 100 to 1000 | 10 to 100
5 | COc1ccc(F)cc1C(=O)NCc1ccc(-c2nn(C3CCCC3)c(N)c2C(N)=O)cc1F [Example 76, 5-amino-1-cyclopentyl-3-[3-fluoro-4-[[(5-fluoro-2-methoxy-benzoyl)amino]methyl]phenyl]pyrazole-4-carboxamide] | < 10 | 100 to 1000 | 10 to 100 | < 10
6 | CONC(=O)C1CCC(n2nc(-c3ccc(CNC(=O)c4ccccc4OC)cc3)c(C(N)=O)c2N)CC1 (mixture of isomers) [Example 75, 5-amino-3-[4-[[(2-methoxybenzoyl)amino]methyl]phenyl]-1-[4-(methoxycarbamoyl)cyclohexyl]pyrazole-4-carboxamide] | < 10 | 100 to 1000 | 100 to 1000 | < 10
7 | COc1ccccc1C(=O)NCc1ccc(-c2nn(C3CCC(C)(O)CC3)c(N)c2C(N)=O)cc1 (single isomer, unassigned) [Example 33, 5-Amino-1-(4-hydroxy-4-methyl-cyclohexyl)-3-[4-[[(2-methoxybenzoyl)amino]methyl]phenyl]pyrazole-4-carboxamide] | < 10 | 100 to 1000 | 10 to 100 | < 10
8 | COc1ccccc1C(=O)NCc1ccc(-c2nn([C@H]3CCOC3)c(N)c2C(N)=O)cc1 [Example 83a, 5-amino-3-[4-[[(2-methoxybenzoyl)amino]methyl]phenyl]-1-[(3S)-tetrahydrofuran-3-yl]pyrazole-4-carboxamide] | < 10 | 1000 to 10000 | 100 to 1000 | < 10
9 | COc1ccccc1C(=O)NCc1ccc(-c2nn(C3CCC(OCc4ccccc4)CC3)c(N)c2C(N)=O)cc1 (mixture of isomers) [Example 28, 5-Amino-1-(4-benzyloxycyclohexyl)-3-[4-[[(2-methoxybenzoyl)amino]methyl]phenyl]pyrazole-4-carboxamide] | < 10 | 100 to 1000 | 10 to 100 | < 10
10 | COc1ccccc1C(=O)NCc1ccc(-c2nn(C(C)C(F)(F)F)c(N)c2C(N)=O)cc1 (centres unmarked) [Example 121, 5-amino-3-[4-[[(2-methoxybenzoyl)amino]methyl]phenyl]-1-(2,2,2-trifluoro-1-methyl-ethyl)pyrazole-4-carboxamide] | < 10 | 100 to 1000 | 10 to 100 | < 10
11 | CNc1c(C(N)=O)c(-c2ccc(CNC(=O)c3ccccc3OC)cc2)nn1C1CCOC1 (centres unmarked) [Example 97, 3-[4-[[(2-methoxybenzoyl)amino]methyl]phenyl]-5-(methylamino)-1-tetrahydrofuran-3-yl-pyrazole-4-carboxamide] | < 10 | 1000 to 10000 | 1000 to 10000 | 10 to 100
12 | COc1ccc(F)cc1C(=O)NCc1ccc(-c2nn(C3CCOCC3)c(N)c2C(N)=O)cc1 [Example 115, 5-amino-3-[4-[[(5-fluoro-2-methoxy-benzoyl)amino]methyl]phenyl]-1-tetrahydropyran-4-yl-pyrazole-4-carboxamide] | < 10 | 1000 to 10000 | 10 to 100 | < 10
13 | COc1ccccc1C(=O)NCc1ccc(-c2nn(C3CCOCC3)c(N)c2C(N)=O)c(F)c1F [Example 141, 5-amino-3-[2,3-difluoro-4-[[(2-methoxybenzoyl)amino]methyl]phenyl]-1-tetrahydropyran-4-yl-pyrazole-4-carboxamide] | < 10 | > 10000 | 100 to 1000 | 10 to 100

Continued, values first:

Row | IC50 [1] [nM] | IC50 [2] [nM] | IC50 [3] [nM] | IC50 [4] [nM] | Structure (SMILES)
14 | < 10 | 1000 to 10000 | 10 to 100 | < 10 | COc1ccc(F)cc1C(=O)NCc1ccc(-c2nn(C(C)C(F)F)c(N)c2C(N)=O)cc1 (centres unmarked) [Example 173, 5-amino-1-(2,2-difluoro-1-methyl-ethyl)-3-[4-[[(5-fluoro-2-methoxy-benzoyl)amino]methyl]phenyl]pyrazole-4-carboxamide]
15 | < 10 | 1000 to 10000 | 10 to 100 | < 10 | COc1ccc(F)cc1C(=O)NCc1ccc(-c2nn(C3CCNCC3(F)F)c(N)c2C(N)=O)cc1 (centres unmarked) [Example 186, 5-amino-1-(3,3-difluoro-4-piperidyl)-3-[4-[[(5-fluoro-2-methoxy-benzoyl)amino]methyl]phenyl]pyrazole-4-carboxamide]
16 | < 10 | > 10000 | 10 to 100 | < 10 | COc1ccc(F)cc1C(=O)NCc1ccc(-c2nn(C3CCCOC3)c(N)c2C(N)=O)c(F)c1F (centres unmarked) [Example 159, 5-amino-3-[2,3-difluoro-4-[[(5-fluoro-2-methoxy-benzoyl)amino]methyl]phenyl]-1-tetrahydropyran-3-yl-pyrazole-4-carboxamide]
17 | 10 to 100 | > 10000 | 100 to 1000 | 10 to 100 | COc1ccc(F)cc1C(=O)NCc1c(F)cc(-c2nn(C3CCCOC3)c(N)c2C(N)=O)cc1F (centres unmarked) [Example 158, 5-amino-3-[3,5-difluoro-4-[[(5-fluoro-2-methoxy-benzoyl)amino]methyl]phenyl]-1-tetrahydropyran-3-yl-pyrazole-4-carboxamide]
18 | < 10 | 1000 to 10000 | 10 to 100 | 10 to 100 | COc1ccccc1C(=O)NCc1ccc(-c2nn(C3CN(C)CC3(F)F)c(N)c2C(N)=O)cc1F (centres unmarked) [Example 166, 5-amino-1-(4,4-difluoro-1-methyl-pyrrolidin-3-yl)-3-[3-fluoro-4-[[(2-methoxybenzoyl)amino]methyl]phenyl]pyrazole-4-carboxamide]
19 | < 10 | 1000 to 10000 | 10 to 100 | < 10 | COc1ccc(F)cc1C(=O)NCc1ccc(-c2nn([C@@H]3CCOC3)c(N)c2C(N)=O)cc1 [Example 164, 5-amino-3-[4-[[(5-fluoro-2-methoxy-benzoyl)amino]methyl]phenyl]-1-[(3R)-tetrahydrofuran-3-yl]pyrazole-4-carboxamide]
20 | < 10 | 1000 to 10000 | 10 to 100 | 10 to 100 | COc1ccc(F)cc1C(=O)NCc1ccc(-c2nn(C(c3ccccc3)C(F)(F)F)c(N)c2C(N)=O)cc1 (centres unmarked) [Example 178, 5-Amino-3-[4-[[(5-fluoro-2-methoxy-benzoyl)amino]methyl]phenyl]-1-(2,2,2-trifluoro-1-phenyl-ethyl)pyrazole-4-carboxamide]
21 | < 10 | 1000 to 10000 | 10 to 100 | < 10 | COc1ccc(F)cc1C(=O)NCc1ccc(-c2nn(CCC(F)(F)F)c(N)c2C(N)=O)cc1 [Example 174, 5-amino-3-[4-[[(5-fluoro-2-methoxy-benzoyl)amino]methyl]phenyl]-1-(3,3,3-trifluoropropyl)pyrazole-4-carboxamide]
22 | < 10 | > 10000 | 100 to 1000 | 10 to 100 | COc1ccc(F)cc1C(=O)NCc1cc(F)c(-c2nn(C3CCOC3)c(N)c2C(N)=O)cc1F (centres unmarked) [Example 153, 5-amino-3-[2,5-difluoro-4-[[(5-fluoro-2-methoxy-benzoyl)amino]methyl]phenyl]-1-tetrahydrofuran-3-yl-pyrazole-4-carboxamide]
23 | < 10 | > 10000 | 100 to 1000 | 10 to 100 | COCC(C)n1nc(-c2ccc(CNC(=O)c3ccccc3OC)cc2)c(C(N)=O)c1N (centres unmarked) [Example 143, 5-amino-3-[4-[[(2-methoxybenzoyl)amino]methyl]phenyl]-1-(2-methoxy-1-methyl-ethyl)pyrazole-4-carboxamide]
